Columns and labels:
Dahl salt-sensitive rats = test: Laser Doppler flowmetry of cerebral blood flow in hypertensive Dahl rats; conditions: 11 weeks old, intraperitoneal injection 0.2 mg/kg, 25 min post-treatment vs baseline, mean±SEM
Method: Six week old Dahl salt-sensitive rats were placed on an 8% high-salt diet to induce hypertension. Cerebral brain flow (CBF) was measured at 11 weeks, 4 weeks following high-salt diet onset. A burr hole was drilled 1 mm posterior and 6 mm lateral to bregma, corresponding to the ischemic territory. A laser Doppler transducer probe (Laserflo) was affixed above the cortex using a stereotaxic frame (Harvard Apparatus, MA), and a baseline CBF was established over a period of 20-30 minutes (1 minute intervals), Tat control peptide (n=5) or δV1-1-Tat peptide (n=15) was injected by intraperitoneal injection (0.2 mg/kg in 1 mL) and cerebral brain flow was monitored for an additional 20-30 minutes. Cerebral brain flow was also measured in the sham control animals (n=4).
Analysis of changes in cerebral brain flow was performed by comparing the baseline flow-rate at 20 minutes, to the flow-rate at 25 minutes post-treatment in all animals. Results were expressed as both a scattergram of percent flow changes in individual animals, and the mean±SEM flow in each group. Statistical analysis between Tat and δV1-1-Tat treatment groups was performed using an unpaired t-test.

[1] = system: hypertensive Dahl salt-sensitive rats; test: Middle cerebral artery occlusion, infarct size by TTC staining in hypertensive Dahl rats; type: in vivo, rat
δPKC [2] = conditions: normotensive animals, sustained delivery; cited from earlier work
εPKC = target: T1, εPKC (Rattus norvegicus, UniProt P09216); test: Western blot of εPKC translocation in brain of Dahl hypertensive rats; conditions: sustained subcutaneous pump delivery, same blot reprobed
T1 sequence (P09216 1-737): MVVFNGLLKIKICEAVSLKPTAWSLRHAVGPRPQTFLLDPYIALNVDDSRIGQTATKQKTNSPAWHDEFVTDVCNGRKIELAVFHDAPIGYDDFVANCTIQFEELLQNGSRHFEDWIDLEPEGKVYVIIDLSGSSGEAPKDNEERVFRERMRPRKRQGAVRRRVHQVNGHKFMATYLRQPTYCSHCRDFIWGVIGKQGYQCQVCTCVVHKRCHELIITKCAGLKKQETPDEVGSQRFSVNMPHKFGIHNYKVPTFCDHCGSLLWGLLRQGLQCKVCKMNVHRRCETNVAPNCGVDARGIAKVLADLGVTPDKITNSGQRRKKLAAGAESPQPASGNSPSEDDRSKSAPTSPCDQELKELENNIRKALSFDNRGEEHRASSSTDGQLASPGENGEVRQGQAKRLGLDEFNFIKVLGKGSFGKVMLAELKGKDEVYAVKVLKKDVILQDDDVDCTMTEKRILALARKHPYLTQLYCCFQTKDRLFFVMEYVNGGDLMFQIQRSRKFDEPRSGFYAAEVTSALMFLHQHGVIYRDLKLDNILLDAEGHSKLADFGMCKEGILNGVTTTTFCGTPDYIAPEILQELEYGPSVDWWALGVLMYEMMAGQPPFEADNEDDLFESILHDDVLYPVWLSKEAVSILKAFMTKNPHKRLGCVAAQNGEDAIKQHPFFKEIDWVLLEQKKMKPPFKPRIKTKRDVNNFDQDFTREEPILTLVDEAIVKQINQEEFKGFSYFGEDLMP

δPKC [3] = target: δPKC (Rattus norvegicus, UniProt P09215); test: Western blot of δPKC translocation (soluble to membrane fraction) in brain of Dahl hypertensive rats; conditions: sustained subcutaneous pump delivery 4-6 weeks, n=3
Chain of δPKC (Rattus norvegicus, UniProt P09215) (P09215 whole entry): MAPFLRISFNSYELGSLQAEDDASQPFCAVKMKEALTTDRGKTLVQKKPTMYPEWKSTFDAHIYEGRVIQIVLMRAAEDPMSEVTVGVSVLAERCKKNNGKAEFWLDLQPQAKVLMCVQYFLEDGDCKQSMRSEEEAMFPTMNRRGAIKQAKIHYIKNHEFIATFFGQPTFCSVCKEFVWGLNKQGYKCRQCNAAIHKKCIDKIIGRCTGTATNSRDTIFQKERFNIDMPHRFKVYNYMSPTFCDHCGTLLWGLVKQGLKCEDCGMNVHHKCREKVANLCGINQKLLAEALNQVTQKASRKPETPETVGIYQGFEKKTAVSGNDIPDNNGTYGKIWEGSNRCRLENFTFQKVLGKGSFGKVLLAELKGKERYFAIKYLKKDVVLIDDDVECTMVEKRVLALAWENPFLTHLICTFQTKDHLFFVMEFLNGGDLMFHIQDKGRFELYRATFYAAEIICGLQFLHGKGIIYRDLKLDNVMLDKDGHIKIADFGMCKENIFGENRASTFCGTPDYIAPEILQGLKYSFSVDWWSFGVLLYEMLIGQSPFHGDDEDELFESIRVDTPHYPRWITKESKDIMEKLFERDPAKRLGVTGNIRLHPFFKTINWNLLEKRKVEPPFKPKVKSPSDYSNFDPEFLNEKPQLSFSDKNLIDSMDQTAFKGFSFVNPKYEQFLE
Method: Dahl rats were implanted with pumps for subcutaneous delivering δV1-1-Tat or Tat control peptide for 4-6 weeks. δPKC activity in brain samples was assessed by determining the translocation of the enzyme from the soluble, cytosolic fraction, to the membrane-bound fraction, a standard marker for PKC activation (Kraft, A. S. et al., Nature, 301:621-3 (1983)).
The density of the bands was measured to assess PKC translocation, as a measure of δPKC activation.
Brains from Dahl hypertensive rats that received δV1-1-Tat or Tat peptide delivery for 4 weeks, starting at 11 weeks of age, were quickly isolated and frozen. Tissue fractionation was performed to collect soluble (cytosolic) and particulate (membrane) fractions, as previously described (Johnson, J. A. et al., Life Sci., 57:1027-38(1995)). 5 μg of protein from each fraction was used forwestern blot analysis using a rabbit anti-phospho-serine 643 δPKC antibody (Santa Cruz Biotechnology; 1:500) followed with an anti-rabbit secondary antibody (Amersham). Density of δPKC bands was measured to assess translocation of PKC from the cytosol to membrane fractions, a measure of activation (Kraft, A. S. et al., Nature, 301:621-3 (1983)). Blots were then reprobed with a rabbit anti-δPKC antibody (Santa Cruz Biotechnology; 1:500), to assess translocation of the δPKC isozyme. Statistical analysis was performed using students t-test.

Sequence: SFNSYELGSL (listed as Rattus norvegicus) [δV1-1]
- change in cerebral blood flow from baseline (Dahl salt-sensitive rats): 12%
- reduction of infarct size compared with Tat controls ([1]; 90 min MCA occlusion, 24 h reperfusion, chronic subcutaneous pump delivery, animals without hemorrhage): 25%
- infarct size (relative stroke area) ([1]; 90 min MCA occlusion, 24 h reperfusion, chronic subcutaneous pump delivery, animals without hemorrhage, n=6-7 per group): 30±4%
- δPKC activity in the brain (δPKC [2]): inhibits δPKC activity

Sequence: YGRKKRRQRRR [Tat]
- change in cerebral blood flow from baseline (Dahl salt-sensitive rats): −5±9%
- εPKC activation, percent translocation (εPKC): 46±5 % translocation
- δPKC activation, percent translocation (δPKC [3]): 49±1 % translocation
- infarct size (relative stroke area) ([1]; rat, in vivo, sc): 39±3%

Source: patent publication US20070066526A1, “Method for reducing risk of and extent of injury due to stroke in hypertensive subjects” (priority 2005, published 2007)
